Results as given in US5750104A, “High buffer-containing enteric coating digestive enzyme bile acid compositions and method of treating digestive disorders therewith” (Digestive Care Inc., priority 1996, dated 1998).

Legend:
[1] = cited from earlier work
pancreatic enzymes = assay: Compatibility and biological activity of pancreatic enzymes in acidic UDCA compositions; assay type: biochemical; conditions: acidic form of UDCA
Text: Pancreatic enzymes and salts of UDCA complement one another in the digestive system of a mammal. A dietary supplement containing both the enzymes and salts of UDCA would provide in a convenient pre-determined dose the remedy needed to treat the above-described diseased states. […] Lipase is especially affected by the low pH for the reasons that: […]

## C[C@H](CCC(=O)O)[C@H]1CC[C@H]2[C@@H]3[C@@H](O)C[C@@H]4C[C@H](O)CC[C@]4(C)[C@H]3CC[C@]12C [UDCA, ursodeoxycholic acid]
[1]; about 30 mg/kg of body weight, some patients
  benefit at higher dosage: limited benefits
[1]; human, in vivo
  effect on liver function: augmenting liver function
  undesirable side effects: severe diarrhea
[1]; patients having cystic fibrosis, hepatobiliary complications
  effect on nutritional state: improving the nutritional state
Pancreatic enzymes
  compatibility with pancreatic enzymes: incompatible with pancreatic enzymes
